Data taken from BindingDB's records for doi:10.1021/jm00098a013 (Duquesne University, 1992).

Experiment: Compound was evaluated for the inhibition of Aminoimidazole carboxamide ribonucleotide formyl transferase (AICAR) with (6R) tetrahydrofolate as substrate

- IC50: > 95 µM
Compound: Cc1c2cnc3nc(N)[nH]c(=O)c3c2c(C)n1C
